In US9133129B2, “Bicyclic compound” (TAKEDA PHARMACEUTICAL COMPANY LIMITED, priority 2011, dated 2015):

Tests used:
human ACC2 = molecular target: T1, human ACC2 (Homo sapiens, UniProt O00763); experiment: ACC2 inhibitory activity, malachite green assay with recombinant ACC2 (Nd); format: biochemical; settings: for inhibition at 1 µM: 1 μM of the test compound, read-out: ACC2 inhibitory rates (%) at 1 μM; for inhibition at 10 µM: read-out: ACC2 inhibitory rates (%) at 10 μM
T1 construct: made in house; host or cells: SF-9 insect cells, recombinant baculovirus BAC-ACC2 (Nd)
T1 sequence (O00763 117-2458 limits assumed): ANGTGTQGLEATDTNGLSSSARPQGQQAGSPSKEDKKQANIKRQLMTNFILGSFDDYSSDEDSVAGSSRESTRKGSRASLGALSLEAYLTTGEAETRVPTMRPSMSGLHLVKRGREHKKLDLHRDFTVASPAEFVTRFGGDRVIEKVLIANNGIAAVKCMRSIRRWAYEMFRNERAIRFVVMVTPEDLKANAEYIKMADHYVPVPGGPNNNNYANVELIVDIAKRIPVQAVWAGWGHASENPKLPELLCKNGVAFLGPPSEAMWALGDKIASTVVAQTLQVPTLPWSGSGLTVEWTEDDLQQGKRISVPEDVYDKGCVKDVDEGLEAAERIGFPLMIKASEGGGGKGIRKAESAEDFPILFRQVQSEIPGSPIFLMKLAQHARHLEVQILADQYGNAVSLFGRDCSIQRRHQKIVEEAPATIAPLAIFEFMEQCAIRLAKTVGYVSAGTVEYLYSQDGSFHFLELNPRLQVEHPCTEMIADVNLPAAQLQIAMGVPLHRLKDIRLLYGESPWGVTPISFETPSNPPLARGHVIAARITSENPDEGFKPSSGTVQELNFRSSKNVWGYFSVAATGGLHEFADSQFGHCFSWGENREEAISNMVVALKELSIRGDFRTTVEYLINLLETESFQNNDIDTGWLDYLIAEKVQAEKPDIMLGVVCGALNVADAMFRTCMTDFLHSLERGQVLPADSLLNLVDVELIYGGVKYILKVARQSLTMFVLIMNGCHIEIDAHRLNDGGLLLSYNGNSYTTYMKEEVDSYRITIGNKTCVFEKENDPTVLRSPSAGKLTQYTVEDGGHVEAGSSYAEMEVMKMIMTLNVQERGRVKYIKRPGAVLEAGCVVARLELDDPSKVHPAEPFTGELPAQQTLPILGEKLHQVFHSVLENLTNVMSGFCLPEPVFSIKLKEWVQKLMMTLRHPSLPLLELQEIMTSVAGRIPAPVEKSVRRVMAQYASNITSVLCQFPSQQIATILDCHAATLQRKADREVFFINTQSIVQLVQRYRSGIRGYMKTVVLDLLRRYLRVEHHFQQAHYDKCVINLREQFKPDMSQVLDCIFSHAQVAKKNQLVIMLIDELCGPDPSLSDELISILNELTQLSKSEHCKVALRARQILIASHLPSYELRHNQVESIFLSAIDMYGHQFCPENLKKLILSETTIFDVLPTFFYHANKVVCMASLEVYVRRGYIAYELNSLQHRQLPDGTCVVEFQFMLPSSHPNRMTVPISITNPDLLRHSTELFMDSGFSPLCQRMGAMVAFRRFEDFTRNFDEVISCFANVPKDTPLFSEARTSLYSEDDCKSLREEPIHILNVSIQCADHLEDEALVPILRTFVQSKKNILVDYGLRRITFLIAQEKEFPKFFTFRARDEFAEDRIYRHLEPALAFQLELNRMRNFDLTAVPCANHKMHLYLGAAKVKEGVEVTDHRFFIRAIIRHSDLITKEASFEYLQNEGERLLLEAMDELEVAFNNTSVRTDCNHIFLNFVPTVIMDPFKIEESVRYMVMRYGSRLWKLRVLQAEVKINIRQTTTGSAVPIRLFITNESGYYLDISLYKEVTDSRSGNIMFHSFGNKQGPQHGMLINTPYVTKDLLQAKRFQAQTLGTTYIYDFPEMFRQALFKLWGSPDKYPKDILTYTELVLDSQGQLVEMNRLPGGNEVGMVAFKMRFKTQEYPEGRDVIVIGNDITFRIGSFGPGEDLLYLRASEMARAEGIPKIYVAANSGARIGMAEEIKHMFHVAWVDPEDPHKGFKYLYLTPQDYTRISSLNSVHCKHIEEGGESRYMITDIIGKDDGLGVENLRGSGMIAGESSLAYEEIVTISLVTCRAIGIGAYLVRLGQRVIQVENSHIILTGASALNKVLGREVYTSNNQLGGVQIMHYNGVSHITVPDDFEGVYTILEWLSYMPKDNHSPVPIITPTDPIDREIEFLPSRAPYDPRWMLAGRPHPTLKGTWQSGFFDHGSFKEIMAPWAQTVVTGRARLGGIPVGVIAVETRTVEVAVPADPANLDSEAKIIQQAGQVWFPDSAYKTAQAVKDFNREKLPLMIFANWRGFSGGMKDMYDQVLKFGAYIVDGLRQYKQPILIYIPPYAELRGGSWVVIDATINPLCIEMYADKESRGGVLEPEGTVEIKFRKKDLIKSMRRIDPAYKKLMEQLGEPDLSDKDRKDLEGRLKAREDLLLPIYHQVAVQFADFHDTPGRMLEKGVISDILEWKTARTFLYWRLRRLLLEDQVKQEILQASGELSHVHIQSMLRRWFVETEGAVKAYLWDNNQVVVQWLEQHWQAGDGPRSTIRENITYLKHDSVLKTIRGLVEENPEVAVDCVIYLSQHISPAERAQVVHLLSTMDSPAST
Description: The ACC2 inhibitory action of the compound of the present invention was evaluated by the following method.
(1) Cloning of Human ACC2 Gene and Preparation of Recombinant Baculovirus
Human ACC2 gene was cloned by PCR using a human skeletal muscle cDNA library (Clontech) as a template and Primer 1 and Primer 2 shown below. Primer 1 and Primer 2 were prepared by adding SalI, XbaI restriction enzyme recognition sequences based on the information of the base sequence of human ACC2 gene (Genbank Accession U89344).
(§1) PCR was performed using Pyrobest DNA polymerase (TAKARA BIO INC.). The obtained PCR product was cloned to pT7 Blue vector (Novagen) and after confirmation of the base sequence, digested with restriction enzymes SalI and XbaI. The obtained DNA fragment was inserted into pFAST-BacHTa (Invitrogen) digested with restriction enzymes SalI and XbaI to give expression plasmid ACC2/pFAST-BacHTa.
A plasmid for expression of ACC2 without a mitochondrial targeting sequence was prepared by PCR using the expression plasmid as a template, and Primer 3 (SalI restriction enzyme recognition sequence was added) and Primer 4, which are prepared by reference to the information of human ACC2 gene base sequence (Genbank Accession U89344).
as §1, with “Pyrobest-DNA” for “Pyrobest DNA”, “AflII.” for “XbaI.”, “ACC2/pFAST-BacHTa” for “pFAST-BacHTa (Invitrogen)”, “AflII” for “XbaI”, “ACC2mito7/pFAST-BacHTa.” for “ACC2/pFAST-BacHTa.”
Using the expression plasmid ACC2mito7/pFAST-BacHTa and BAC-TO-BAC Baculovirus Expression System (Invitrogen), virus stock BAC-ACC2 of recombinant Baculovirus (N terminal deleted (hereinafter Nd)) was prepared.
(2) Preparation of ACC2 (Nd) Protein
SF-9 cells (Invitrogen) were inoculated to a medium (10 L) for insect cells (Sf-900IISFM medium (Invitrogen) containing 5% fetal bovine serum (Trace), 50 mg/L Gentamicin (Wako), 0.1% Pluronic F-68 (Invitrogen)) at 1.0×10^6 cells/mL, and cultured with shaking in Wave Bioreactor (GE Health Care) at 27° C., 20 rpm, rocking angle 10°, oxygen concentration 30%.
On day 2 of the culture, recombinant Baculovirus BAC-ACC2 (Nd) was added, and the cells were cultured for 3 days. The culture medium was centrifuged at 1000×g for 10 min to give virus-infected cells. The cells were washed with phosphate buffered saline (Invitrogen) and centrifuged under the same conditions. The obtained cells were cryopreserved at −80° C.
The cryopreserved cells were thawed in ice and suspended in 900 mL of 25 mM HEPES buffer (pH 7.5) containing 10% Glycerol, 0.3 M NaCl, 1 mM EDTA, 25 mM Sodium β-Glycerophosphate and 1 mM Sodium Orthovanadate, and supplemented with Complete Protease Inhibitor (Roche). The obtained suspension was homogenized three times in a polytron homogenizer (Kinematica) at 20,000 rpm for 30 sec. The obtained cell disruption solution was clarified by centrifugation at 186000×g for 60 min. To the supernatant was added 5 mL of AF-chelate 650M Ni chelated carrier (TOSOH), and the mixture was rotated at 4° C. for 1 hr, and centrifuged at 1000×g for 5 min, and the carrier was transferred to opened column. The column was washed with 50 mL of buffer A (50 mM HEPES (pH 7.5) containing 0.3 M NaCl), further washed with buffer A containing 20 mM Imidazole, and eluted with buffer A containing 250 mM Imidazole. The eluate was concentrated with Amicon Ultra 15 (Millipore) with a molecular weight cut off of 50K. The obtained concentrate was filtered using gelfiltration column (HiLoad 26/60 Superdex200 prep grade) (GE Health Care) with 50 mM HEPES buffer (pH 7.5) containing 10 mM MgCl2, 2 mM Dithiothreitol, 10 mM Tripotassium Citrate and 0.3 M NaCl to give ACC2 (Nd). The obtained ACC2 (Nd) was cryopreserved at −80° C.
(3) Measurement of ACC2 Inhibitory Activity […]

| Structure (SMILES) | inhibition at 1 µM (human ACC2) | melting point | inhibition at 10 µM (human ACC2; 10 μM of the test compound) | ACC2 inhibitory rates (%) at 10 μM (human ACC2; 10 μM of the test compound, 10 µM) |
| --- | --- | --- | --- | --- |
| CC(=O)N[C@@H](C)COc1cc2oc(-c3cc(F)c(OCC4CC4)cn3)nc2cn1 [Example 65, N-((2S)-1-((2-(5-(cyclopropylmethoxy)-4-fluoropyridin-2-yl)[1,3]oxazolo[4,5-c]pyridin-6-yl)oxy)propan-2-yl)acetamide] | 95% | 183.3 to 183.4 °C |  |  |
| CC(=O)N[C@@H](C)COc1cc2oc(-c3cc(F)c(OCC4CC4)cc3F)nc2cn1 [Example 48, N-((2S)-1-((2-(4-(cyclopropylmethoxy)-2,5-difluorophenyl)[1,3]oxazolo[4,5-c]pyridin-6-yl)oxy)propan-2-yl)acetamide] |  | 199.8 to 199.9 °C | 85% |  |
| CC(=O)N[C@@H](C)COc1ccc2nc(-c3ccc(OCC4CC4)c(Cl)c3)oc2c1 [Example 29, N-((2S)-1-((2-(3-chloro-4-(cyclopropylmethoxy)phenyl)-1,3-benzoxazol-6-yl)oxy)propan-2-yl)acetamide] |  | 156 to 159 °C |  |  |
| COc1cc(-c2nc3cnc(OC[C@H](C)NC(C)=O)cc3o2)cc(F)c1OCC1CC1 [Example 62, N-((2S)-1-((2-(4-(cyclopropylmethoxy)-3-fluoro-5-methoxyphenyl) [1,3]oxazolo[4,5-c]pyridin-6-yl)oxy)propan-2-yl)acetamide] | 90% | 162.9 to 163 °C |  |  |
| CC(=O)N[C@@H](C)COc1ccc2nc(-c3ccc(OCC4CC4)c(F)c3)oc2c1 [Example 1, N-((2S)-1-((2-(4-(cyclopropylmethoxy)-3-fluorophenyl)-1,3-benzoxazol-6-yl)oxy)propan-2-yl)acetamide] |  | 174 °C | 95% |  |
| CC(=O)N[C@@H](C)COc1cc2oc(-c3cc(F)c(OCC4CC4)c(F)c3)nc2cn1 [Example 47, N-((2S)-1-((2-(4-(cyclopropylmethoxy)-3,5-difluorophenyl)[1,3]oxazolo[4,5-c]pyridin-6-yl)oxy)propan-2-yl)acetamide] |  |  | 91% |  |
| CC(=O)N[C@@H](C)COc1ccc2nc(-c3ccc(OCC4CC4)c(F)c3)oc2c1F [Example 37, N-((2S)-1-((2-(4-(cyclopropylmethoxy)-3-fluorophenyl)-7-fluoro-1,3-benzoxazol-6-yl)oxy)propan-2-yl)acetamide] |  | 163 to 164 °C | 90% |  |
| CC(=O)N[C@@H](C)COc1cc2oc(-c3cnc(OCC4CC4)c(Cl)c3)nc2cn1 [Example 35, N-((2S)-1-((2-(5-chloro-6-(cyclopropylmethoxy)pyridin-3-yl)[1,3]oxazolo[4,5-c]pyridin-6-yl)oxy)propan-2-yl)acetamide] |  |  | 83% |  |

Other lines, results leading:

| inhibition at 1 µM (human ACC2) | melting point | inhibition at 10 µM (human ACC2; 10 μM of the test compound) | ACC2 inhibitory rates (%) at 10 μM (human ACC2; 10 μM of the test compound, 10 µM) | Structure (SMILES) |
| --- | --- | --- | --- | --- |
| 98% | 204.6 to 204.7 °C |  |  | CC(=O)N[C@@H](C)COc1cc2oc(-c3ccc(OC[C@H]4CC4(F)F)cc3)nc2cn1 [Example 68, N-((2S)-1-((2-(4-(((1R)-2,2-difluorocyclopropyl)methoxy)phenyl) [1,3]oxazolo[4,5-c]pyridin-6-yl)oxy)propan-2-yl)acetamide] |
|  |  | 84% |  | CC(=O)N[C@@H](C)COc1ncc2nc(-c3ccc(OCC4CC4(F)F)cc3)oc2n1 (stereo partly drawn) [Example 136, N-((2S)-1-((2-(4-((2,2-difluorocyclopropyl)methoxy)phenyl) [1,3]oxazolo[5,4-d]pyrimidin-5-yl)oxy)propan-2-yl)acetamide] |
|  |  | 84% |  | CC(=O)N[C@@H](C)COc1cc2oc(-c3cnc(OCC4CC4)cc3C)nc2cn1 [Example 122, N-((2S)-1-((2-(6-(cyclopropylmethoxy)-4-methylpyridin-3-yl)[1,3]oxazolo[4,5-c]pyridin-6-yl)oxy)propan-2-yl)acetamide] |
|  |  | 89% |  | CC(=O)N[C@@H](C)COc1ccc2nc(-c3ccc(OCC4CC4(F)F)c(F)c3)oc2c1F (stereo partly drawn) [Example 80, N-((2S)-1-((2-(4-((2,2-difluorocyclopropyl)methoxy)-3-fluorophenyl)-7-fluoro-1,3-benzoxazol-6-yl)oxy)propan-2-yl)acetamide] |
|  |  |  | 89% | CC(=O)N[C@@H](C)COc1cc2oc(-c3cc(F)c(OCC4CC4(F)F)c(F)c3)nc2cn1 (stereo partly drawn) [Example 86, N-((2S)-1-((2-(4-((2,2-difluorocyclopropyl)methoxy)-3,5-difluorophenyl)[1,3]oxazolo[4,5-c]pyridin-6-yl)oxy)propan-2-yl)acetamide] |
